Data taken from ChEMBL document CHEMBL4665632, “Design, synthesis and biological evaluation of pyridone-aminal derivatives as MNK1/2 inhibitors” (Bioorg Med Chem, 2019).
Active and inactive are the calls of the source. The calls are words filed in the database; no cut-off is given here.

Assays:
[1] = Toxicity in BALB/c mouse xenografted with […] cells assessed as weight loss at 20 to 40 mg/kg, ip administered for 14 days; assay type: organism-based; settings: in vivo, 336 h, dose 20-40 mg/kg, time 14 day
CT26 = assay: Antitumor activity against […] cells xenografted in BALB/c mouse assessed as tumor growth inhibition dosed ip for 14 days; assay type: functional, organism-based; settings: time 14.0 day
[2] = Antitumor activity against […] cells xenografted in BALB/c mouse assessed as tumor growth inhibition at 40 mg/kg, ip administered for 14 days relative to control; assay type: functional; settings: 336 h, time 14 day, read-out: TGI
[3] = Antitumor activity against […] cells xenografted in BALB/c mouse assessed as tumor growth inhibition at 20 mg/kg, ip administered for 14 days relative to control; assay type: functional; settings: 336 h, time 14 day, read-out: TGI
[4] = target: Tyrosine-protein kinase JAK1 (Homo sapiens) (UniProt P23458); assay: Inhibition of JAK1 (unknown origin) at 500 nM relative to control
[5] = target: Tyrosine-protein kinase BTK (Homo sapiens) (UniProt Q06187); assay: Inhibition of BTK (unknown origin) at 500 nM relative to control
[6] = target: Cyclin-dependent kinase 2 (Homo sapiens) (UniProt P24941); assay: Inhibition of CDK2 (unknown origin) at 500 nM relative to control
[7] = target: Cyclin-dependent kinase 1 (Homo sapiens) (UniProt P06493); assay: Inhibition of CDK1 (unknown origin) at 500 nM relative to control
[8] = target: AMP-activated protein kinase, AMPK (Homo sapiens) (UniProt P54646+O43741+P54619+Q9UGJ0+Q9Y478+Q13131+Q9UGI9); assay: Inhibition of AMPK (unknown origin) at 500 nM relative to control; assay type: protein-complex assay
[9] = target: Macrophage colony-stimulating factor 1 receptor (Homo sapiens) (UniProt P07333); assay: Inhibition of CSF1R (unknown origin) at 500 nM relative to control
[10] = target: Receptor-type tyrosine-protein kinase FLT3 (Homo sapiens) (UniProt P36888); assay: Inhibition of FLT3 (unknown origin) at 500 nM relative to control
[11] = target: T1, MAP kinase-interacting serine/threonine-protein kinase 2 (Homo sapiens, UniProt Q9HBH9); assay: Inhibition of MNK2 (unknown origin) at 500 nM relative to control
Target sequence in this assay (Q9HBH9 whole entry, looked up): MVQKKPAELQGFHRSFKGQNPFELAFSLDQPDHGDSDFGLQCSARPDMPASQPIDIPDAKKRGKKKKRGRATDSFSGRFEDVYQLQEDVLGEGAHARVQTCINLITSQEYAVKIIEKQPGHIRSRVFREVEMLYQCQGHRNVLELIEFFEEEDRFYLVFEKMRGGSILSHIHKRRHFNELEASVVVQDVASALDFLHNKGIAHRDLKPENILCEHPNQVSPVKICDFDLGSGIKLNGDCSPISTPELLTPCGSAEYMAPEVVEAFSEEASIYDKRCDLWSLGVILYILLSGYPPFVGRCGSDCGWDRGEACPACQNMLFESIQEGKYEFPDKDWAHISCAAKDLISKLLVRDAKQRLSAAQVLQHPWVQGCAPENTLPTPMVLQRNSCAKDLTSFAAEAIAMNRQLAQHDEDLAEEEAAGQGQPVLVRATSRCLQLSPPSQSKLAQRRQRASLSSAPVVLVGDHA

[12] = target: T2, Interleukin-1 receptor-associated kinase 4 (Homo sapiens) (UniProt Q9NWZ3); assay: Inhibition of IRAK4 (unknown origin) at 500 nM relative to control
T2 sequence (whole entry): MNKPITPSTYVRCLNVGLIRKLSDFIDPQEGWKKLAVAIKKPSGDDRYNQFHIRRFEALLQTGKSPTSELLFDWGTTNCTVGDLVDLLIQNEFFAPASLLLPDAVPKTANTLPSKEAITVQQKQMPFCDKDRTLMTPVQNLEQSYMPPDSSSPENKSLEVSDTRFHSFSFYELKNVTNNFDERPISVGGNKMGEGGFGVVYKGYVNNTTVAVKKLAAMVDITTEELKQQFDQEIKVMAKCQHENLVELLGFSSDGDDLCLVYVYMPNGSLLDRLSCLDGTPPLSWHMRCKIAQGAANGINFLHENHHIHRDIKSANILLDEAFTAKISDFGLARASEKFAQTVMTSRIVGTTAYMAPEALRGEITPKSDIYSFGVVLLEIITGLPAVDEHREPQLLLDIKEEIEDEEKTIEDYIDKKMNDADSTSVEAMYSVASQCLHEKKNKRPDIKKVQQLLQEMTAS

[13] = target: T3, MAP kinase-interacting serine/threonine-protein kinase 1 (Homo sapiens, UniProt Q9BUB5); assay: Inhibition of MNK1 (unknown origin) at 500 nM relative to control
Target sequence in this assay (Q9BUB5 whole entry, looked up): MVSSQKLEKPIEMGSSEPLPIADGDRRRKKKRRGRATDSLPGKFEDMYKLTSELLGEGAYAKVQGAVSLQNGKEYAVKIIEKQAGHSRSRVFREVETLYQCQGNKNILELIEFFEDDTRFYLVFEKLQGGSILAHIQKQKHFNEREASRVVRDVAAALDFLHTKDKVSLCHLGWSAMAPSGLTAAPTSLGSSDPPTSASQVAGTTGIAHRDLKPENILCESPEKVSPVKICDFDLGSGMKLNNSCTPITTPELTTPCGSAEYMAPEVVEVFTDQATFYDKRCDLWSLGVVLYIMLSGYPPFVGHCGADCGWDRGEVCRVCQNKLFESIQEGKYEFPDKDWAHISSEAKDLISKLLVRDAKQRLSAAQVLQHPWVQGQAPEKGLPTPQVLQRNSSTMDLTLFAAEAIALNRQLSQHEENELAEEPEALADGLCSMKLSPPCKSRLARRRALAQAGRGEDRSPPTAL

[14] = target: T4, MAP kinase-interacting serine/threonine-protein kinase 1/2 (Homo sapiens) (UniProt Q9HBH9+Q9BUB5); assay: Inhibition of MNK1/MNK2 in […] cells assessed as reduction in eIF4E phosphorylation at 1 uM incubated for 24 hrs by Western blot analysis relative to control; assay type: cell-based
[15] = target: T4, MAP kinase-interacting serine/threonine-protein kinase 1/2 (Homo sapiens); assay: Inhibition of MNK1/MNK2 in […] cells assessed as reduction in eIF4E phosphorylation incubated for 24 hrs by Western blot analysis; assay type: cell-based
[16] = Antiproliferative activity against […] cells assessed as reduction in cell viability at 20 uM incubated for 72 hrs by MTT assay relative to control; assay type: functional, Mus musculus
MDA-MB-435 = assay: Antiproliferative activity against human MDA-MB-435 cells assessed as reduction in cell viability at 20 uM incubated for 72 hrs by MTT assay relative to control; assay type: functional
HCT-116 = assay: Antiproliferative activity against human HCT-116 cells assessed as reduction in cell viability at 20 uM incubated for 72 hrs by MTT assay relative to control; assay type: functional
[17] = target: T4, MAP kinase-interacting serine/threonine-protein kinase 1/2 (Homo sapiens); assay: Inhibition of MNK1/MNK2 in […] cells assessed as reduction in eIF4E level at 0.25 to 1 incubated for 24 hrs by Western blot analysis; assay type: cell-based; settings: dose microM 0.25-1, time 24.0 hrs
A549 = assay: Antiproliferative activity against human A549 cells assessed as reduction in cell viability incubated at 20 uM for 72 hrs by MTT assay relative to control; assay type: functional
TMD8 = assay: Antiproliferative activity against human TMD8 cells assessed as reduction in cell viability incubated for 72 hrs by MTT assay; assay type: functional, cell-based; settings: TMD8, 72 h
K562 = assay: Antiproliferative activity against human K562 cells assessed as reduction in cell viability incubated for 72 hrs by MTT assay; assay type: functional, cell-based; settings: K562, 72 h
MV4-11 = assay: Antiproliferative activity against human MV4-11 cells assessed as reduction in cell viability incubated for 72 hrs by MTT assay; assay type: functional, cell-based; settings: MV4-11, 72 h
[18] = target: T3, MAP kinase-interacting serine/threonine-protein kinase 1; assay: (§1) Potency index, ratio of IC50 of eFT508 to IC50 of compound for inhibition of recombinant human N-terminal DYKDDDDK-tagged MNK1(1 to 424 residues) expressed in baculovirus expression system using TATKSGSTTKNR as substrate preincubated for 10 mins followed by ATP addition and measured after 40 mins by luminescence based assay; settings: time 50.0 min
Target sequence in this assay (Q9BUB5 whole entry, looked up): as above

[19] = target: T1, MAP kinase-interacting serine/threonine-protein kinase 2; assay: Inhibition of MNK2 (unknown origin) at 100 nM incubated for 60 mins by HTRF assay
Target sequence in this assay (Q9HBH9 whole entry, looked up): as the sequence (Q9HBH9 whole entry, looked up) above

[20] = target: T1, MAP kinase-interacting serine/threonine-protein kinase 2; assay: as §1, with “GST-tagged MNK2 (1” for “DYKDDDDK-tagged MNK1(1”, “465” for “424”; settings: time 50.0 min
Target sequence in this assay (Q9HBH9 whole entry, looked up): as above

[21] = target: T3, MAP kinase-interacting serine/threonine-protein kinase 1; assay: Inhibition of MNK1 (unknown origin) at 100 nM incubated for 60 mins by HTRF assay
Target sequence in this assay (Q9BUB5 whole entry, looked up): as the sequence (Q9BUB5 whole entry, looked up) above

[22] = target: T1, MAP kinase-interacting serine/threonine-protein kinase 2; assay: Inhibition of recombinant human N-terminal GST-tagged MNK2 (1 to 465 residues) expressed in baculovirus expression system using TATKSGSTTKNR as substrate preincubated for 10 mins followed by ATP addition and measured after 40 mins by luminescence based assay
Target sequence in this assay (Q9HBH9 whole entry): as the sequence (Q9HBH9 whole entry, looked up) above

[23] = target: T3, MAP kinase-interacting serine/threonine-protein kinase 1; assay: Inhibition of recombinant human N-terminal DYKDDDDK-tagged MNK1(1 to 424 residues) expressed in baculovirus expression system using TATKSGSTTKNR as substrate preincubated for 10 mins followed by ATP addition and measured after 40 mins by luminescence based assay
Target sequence in this assay (Q9BUB5 whole entry): as the sequence (Q9BUB5 whole entry, looked up) above

Sequence of Tyrosine-protein kinase JAK1 (Homo sapiens) (P23458 whole entry): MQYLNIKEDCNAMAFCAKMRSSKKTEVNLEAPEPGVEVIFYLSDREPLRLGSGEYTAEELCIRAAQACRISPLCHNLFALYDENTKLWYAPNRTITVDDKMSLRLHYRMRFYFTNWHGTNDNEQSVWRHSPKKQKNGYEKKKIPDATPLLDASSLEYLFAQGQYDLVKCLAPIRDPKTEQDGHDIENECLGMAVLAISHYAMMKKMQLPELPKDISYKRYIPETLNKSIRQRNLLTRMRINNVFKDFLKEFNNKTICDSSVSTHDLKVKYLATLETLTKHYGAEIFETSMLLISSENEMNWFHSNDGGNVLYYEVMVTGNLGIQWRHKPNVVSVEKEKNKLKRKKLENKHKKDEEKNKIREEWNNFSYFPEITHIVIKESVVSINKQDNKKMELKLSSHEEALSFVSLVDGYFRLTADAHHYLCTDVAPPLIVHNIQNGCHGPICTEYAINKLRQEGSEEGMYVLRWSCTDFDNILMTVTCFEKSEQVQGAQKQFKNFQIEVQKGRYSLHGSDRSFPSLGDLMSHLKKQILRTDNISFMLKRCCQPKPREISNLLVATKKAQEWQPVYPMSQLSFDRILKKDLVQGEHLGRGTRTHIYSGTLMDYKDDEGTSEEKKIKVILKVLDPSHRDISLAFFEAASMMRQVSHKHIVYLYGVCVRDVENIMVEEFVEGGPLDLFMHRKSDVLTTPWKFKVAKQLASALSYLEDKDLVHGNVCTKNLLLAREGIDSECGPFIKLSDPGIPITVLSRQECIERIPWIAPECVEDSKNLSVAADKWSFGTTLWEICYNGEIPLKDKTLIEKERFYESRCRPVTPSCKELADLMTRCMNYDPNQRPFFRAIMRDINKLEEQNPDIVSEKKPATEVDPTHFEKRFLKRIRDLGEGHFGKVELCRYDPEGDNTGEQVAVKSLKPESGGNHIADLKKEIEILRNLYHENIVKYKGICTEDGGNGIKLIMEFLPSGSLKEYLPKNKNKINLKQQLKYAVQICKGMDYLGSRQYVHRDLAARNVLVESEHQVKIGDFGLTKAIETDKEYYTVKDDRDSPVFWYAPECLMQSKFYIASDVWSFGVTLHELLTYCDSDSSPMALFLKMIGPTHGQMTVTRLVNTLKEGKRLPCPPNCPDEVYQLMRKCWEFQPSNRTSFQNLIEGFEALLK
Sequence of Macrophage colony-stimulating factor 1 receptor (Homo sapiens) (P07333 whole entry): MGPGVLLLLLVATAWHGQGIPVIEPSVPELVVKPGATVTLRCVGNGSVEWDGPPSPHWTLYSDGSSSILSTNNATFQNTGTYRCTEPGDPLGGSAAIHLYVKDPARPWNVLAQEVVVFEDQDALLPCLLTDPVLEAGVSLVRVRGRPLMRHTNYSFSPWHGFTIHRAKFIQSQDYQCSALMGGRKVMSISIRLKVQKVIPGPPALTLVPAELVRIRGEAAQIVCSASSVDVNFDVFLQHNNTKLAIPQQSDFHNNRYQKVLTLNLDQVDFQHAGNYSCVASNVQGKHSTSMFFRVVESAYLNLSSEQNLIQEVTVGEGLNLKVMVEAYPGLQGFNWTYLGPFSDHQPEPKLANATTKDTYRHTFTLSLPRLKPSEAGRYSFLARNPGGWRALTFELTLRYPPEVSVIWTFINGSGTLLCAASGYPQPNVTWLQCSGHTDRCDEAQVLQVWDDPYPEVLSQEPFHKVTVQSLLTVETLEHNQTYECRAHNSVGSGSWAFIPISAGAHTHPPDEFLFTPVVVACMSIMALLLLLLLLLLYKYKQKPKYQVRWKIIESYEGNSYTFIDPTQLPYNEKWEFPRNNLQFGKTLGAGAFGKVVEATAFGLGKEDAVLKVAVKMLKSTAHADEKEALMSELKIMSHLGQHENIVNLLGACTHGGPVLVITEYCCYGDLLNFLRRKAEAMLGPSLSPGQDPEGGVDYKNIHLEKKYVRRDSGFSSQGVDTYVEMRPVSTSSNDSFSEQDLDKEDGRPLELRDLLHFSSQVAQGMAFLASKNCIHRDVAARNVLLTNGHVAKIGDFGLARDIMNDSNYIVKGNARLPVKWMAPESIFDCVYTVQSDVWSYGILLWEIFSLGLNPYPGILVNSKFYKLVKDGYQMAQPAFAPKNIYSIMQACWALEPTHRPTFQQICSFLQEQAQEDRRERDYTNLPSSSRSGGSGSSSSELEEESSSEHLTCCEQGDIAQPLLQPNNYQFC
Sequence of Cyclin-dependent kinase 1 (Homo sapiens) (P06493 whole entry, looked up): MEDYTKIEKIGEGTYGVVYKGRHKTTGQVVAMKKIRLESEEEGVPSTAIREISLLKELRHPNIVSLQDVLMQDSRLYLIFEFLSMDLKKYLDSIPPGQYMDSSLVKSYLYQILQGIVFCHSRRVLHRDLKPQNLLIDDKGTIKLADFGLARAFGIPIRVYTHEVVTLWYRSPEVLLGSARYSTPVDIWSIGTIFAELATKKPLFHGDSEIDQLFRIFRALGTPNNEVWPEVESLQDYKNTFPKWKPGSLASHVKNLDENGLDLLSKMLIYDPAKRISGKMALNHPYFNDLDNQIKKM
Sequence of Tyrosine-protein kinase BTK (Homo sapiens) (Q06187 whole entry): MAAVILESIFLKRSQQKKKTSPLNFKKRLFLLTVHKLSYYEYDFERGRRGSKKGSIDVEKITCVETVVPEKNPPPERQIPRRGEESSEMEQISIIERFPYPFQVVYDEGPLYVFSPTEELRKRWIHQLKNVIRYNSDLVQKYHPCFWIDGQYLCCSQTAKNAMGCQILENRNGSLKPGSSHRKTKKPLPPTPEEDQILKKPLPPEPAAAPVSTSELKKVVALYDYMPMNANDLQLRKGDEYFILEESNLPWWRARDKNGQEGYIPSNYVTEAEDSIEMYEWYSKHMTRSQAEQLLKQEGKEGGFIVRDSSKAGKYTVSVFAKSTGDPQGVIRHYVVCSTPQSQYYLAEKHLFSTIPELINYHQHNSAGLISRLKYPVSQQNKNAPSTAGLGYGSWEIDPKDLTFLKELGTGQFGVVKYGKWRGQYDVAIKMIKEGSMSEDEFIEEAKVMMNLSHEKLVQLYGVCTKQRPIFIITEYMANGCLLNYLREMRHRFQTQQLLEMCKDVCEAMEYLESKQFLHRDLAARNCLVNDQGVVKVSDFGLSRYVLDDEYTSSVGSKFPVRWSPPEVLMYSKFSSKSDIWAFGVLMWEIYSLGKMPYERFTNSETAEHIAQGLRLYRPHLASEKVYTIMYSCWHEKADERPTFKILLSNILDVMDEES

Cc1cc(Nc2cc(N3CCN(CCCN(C)C)CC3)ncn2)c(=O)n2c1C(=O)NC21CCCCC1
Activity [1]: Non-Toxic
TGI (CT26): Dose-dependent effect
inhibition in vivo at 40 mg/kg [2]: 60.4%
inhibition in vivo at 20 mg/kg [3]: 41.4%
inhibition [4]: 6%
inhibition [5]: 3%
inhibition [6]: 7%
inhibition [7]: 4%
inhibition [8]: 11%
inhibition [9]: 6%
inhibition [10]: 9%
inhibition [11]: 103%
inhibition [12]: 21%
inhibition [13]: 96%
inhibition [14]: 100%
inhibition [15]: Dose-dependent effect
inhibition at 20 µM [16]: 58.3%
inhibition at 20 µM (MDA-MB-435): 49%
inhibition at 20 µM (HCT-116): 42.9%
inhibition [17]: inactive
inhibition at 20 µM (A549): 41.3%
IC50 (TMD8): 910 nM
IC50 (K562): 11700 nM
IC50 (MV4-11): 10000 nM
Ratio IC50 [18]: 2
inhibition [19]: 91.2%
Ratio IC50 [20]: 2
inhibition [21]: 76.5%
IC50 [22]: 6.1 nM
IC50 [23]: 7 nM
